Here are results for 23 molecules from PubChem BioAssay AID330 (DTP/NCI, 2004).

Structures are written as SMILES. Where “and” joins values, the source holds several entries; their conditions need not be identical. Equal entries are not always repeated. Toxic doses and inconclusive results are not listed.

The test system of this assay is P388 leukemia ip, CD2F1 mice, survival T/C. Put plainly: NCI In Vivo Anticancer Drug Screen. Data for tumor model P388 Leukemia (intraperitoneal) in CD2F1 (CDF1) mice. As to conditions: endpoint: median survival time, higher = longer survival. The method in brief:
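Mice carrying the transplanted tumor received test compound or vehicle. Survival was recorded in each group, and the value is the treated-group measurement divided by that of the vehicle-treated control group.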

The mark [1] stands for this setting: dose: 12.5 mg/kg/injection, schedule: Q01DX009 (ip), vehicle: saline with Tween-80.
The mark [2] stands for this setting: dose: 25.0 mg/kg/injection, schedule: Q01DX009 (ip), vehicle: saline with Tween-80.
The mark [3] stands for this setting: dose: 50.0 mg/kg/injection, schedule: Q01DX009 (ip), vehicle: saline with Tween-80.
The mark [4] stands for this setting: dose: 100.0 mg/kg/injection, schedule: Q04DX003 (ip), vehicle: saline with Tween-80.
[5] abbreviates: dose: 200.0 mg/kg/injection, schedule: Q04DX003 (ip), vehicle: saline with Tween-80.
[6] abbreviates: dose: 25.0 mg/kg/injection, schedule: Q01DX009 (ip), vehicle: other.
The mark [7] stands for this setting: dose: 50.0 mg/kg/injection, schedule: Q01DX009 (ip), vehicle: other.
[8] abbreviates: dose: 100.0 mg/kg/injection, schedule: Q01DX009 (ip), vehicle: other.
Where [9] appears, read: dose: 100.0 mg/kg/injection, schedule: Q01DX009 (ip), vehicle: saline with Tween-80.
Where [10] appears, read: dose: 50.0 mg/kg/injection, schedule: Q01DX005 (ip), vehicle: Klucel (hydroxypropylcellulose) (HPC).
The mark [11] stands for this setting: dose: 100.0 mg/kg/injection, schedule: Q01DX005 (ip), vehicle: Klucel (hydroxypropylcellulose) (HPC).
[12] abbreviates: dose: 200.0 mg/kg/injection, schedule: Q01DX005 (ip), vehicle: Klucel (hydroxypropylcellulose) (HPC).

As to `COc1ccc(/C(C)=N/[O-])cc1CS[n+]1ccccc1`, the T/C was 104 % of control (dose: 50.0 mg/kg/injection, schedule: Q01DX005 (ip), vehicle: distilled water + Tween-80 + alcohol); 95 % of control (dose: 100.0 mg/kg/injection, schedule: Q01DX005 (ip), vehicle: distilled water + Tween-80 + alcohol); 104 % of control (dose: 200.0 mg/kg/injection, schedule: Q01DX005 (ip), vehicle: distilled water + Tween-80 + alcohol).

Take `Cc1cn(O)cc(C)c1=N`: the T/C reads like this: under setting [1], 100 % of control; under setting [2], 100 % of control; under setting [3], 108 % of control.

For `Cn1nc(NC(=O)C(F)(F)F)c2ncc(-c3ccc(Cl)cc3)nc21`, the T/C is 100 % of control under setting [4]; 90 % of control under setting [5]; 90 % of control (dose: 400.0 mg/kg/injection, schedule: Q04DX003 (ip), vehicle: saline with Tween-80).

For `N=c1c2[nH]cnc2ncn1O`, the T/C reads like this: (dose: 60.0 mg/kg/injection, schedule: Q01DX005 (ip), vehicle: Klucel (hydroxypropylcellulose) (HPC)) 92 % of control; (dose: 120.0 mg/kg/injection, schedule: Q01DX005 (ip), vehicle: Klucel (hydroxypropylcellulose) (HPC)) 93 % of control.

As to `CC1=CC=CC2=NC(=O)CCN12`, the T/C is 100 % of control under setting [4] and 100 % of control under setting [5].

For the molecule `CCC(c1ccc(OC)cc1)C(NCC(=O)NNC(=O)CNC(c1ccc(OC)cc1)C(CC)c1ccc(OC)cc1)c1ccc(OC)cc1` (centres undefined), the T/C was 86 % of control (dose: 200.0 mg/kg/injection, schedule: Q04DX002 (ip), vehicle: saline with Tween-80) and 92 % of control (dose: 400.0 mg/kg/injection, schedule: Q04DX002 (ip), vehicle: saline with Tween-80).

Regarding `COC1c2cc3ccccc3nc2-c2ccccc2C1(C)C` (centres undefined), the T/C by setting is: under setting [6], 99 % of control; under setting [7], 96 % of control; under setting [8], 93 % of control; (dose: 200.0 mg/kg/injection, schedule: Q01DX009 (ip), vehicle: other) 89 % of control; (dose: 400.0 mg/kg/injection, schedule: Q01DX009 (ip), vehicle: other) 89 % of control.

Turning to `Cc1ccc(NCCN(C)C)c2c(=O)c3cccc(O)c3sc12`, the T/C under setting [3] was 100 % of control; the T/C under setting [9] is 95 % of control; the T/C (dose: 200.0 mg/kg/injection, schedule: Q01DX009 (ip), vehicle: saline with Tween-80) was 97 % of control.

Turning to `CCSC(=O)/C=C\C=[N+](/[O-])OC`, the T/C was 103 % of control (dose: 12.5 mg/kg/injection, schedule: Q01DX009 (ip), vehicle: other); 104 % of control under setting [6]; 112 % of control and 94 % of control under setting [7]; 97 % of control under setting [8].

Consider `C/C=C(\C)N=NNc1ccccc1`, for which the T/C reads like this: (dose: 100.0 mg/kg/injection, schedule: Q04DX003 (ip), vehicle: saline + Tween-80 + alcohol) 114 % of control; (dose: 200.0 mg/kg/injection, schedule: Q04DX003 (ip), vehicle: saline + Tween-80 + alcohol) 114 % of control.

As for `O=Cc1ccc([N+](=O)[O-])[nH]1`, the T/C is 92 % of control under setting [1], 87 % of control under setting [2], 92 % of control under setting [3] and 86 % of control under setting [9].

In the case of `O=[N+]([O-])c1ccc(Sc2ccc(Cl)cc2)c2nonc12`, the T/C was 105 % of control (dose: 6.25 mg/kg/injection, schedule: Q01DX009 (ip), vehicle: saline with Tween-80); 101 % of control under setting [1]; 93 % of control under setting [2].

Turning to `CCOC(=O)c1cnc(SC)n(-c2c(Cl)cccc2Cl)c1=O`, the T/C is 98 % of control under setting [10], 97 % of control under setting [11] and 99 % of control under setting [12].

As to `CN(CCCN(C)CCC1CCCCC1)CCC1CCCCC1`, the T/C is 100 % of control under setting [1], 103 % of control under setting [2] and 105 % of control under setting [3].

On to `CCOC(=O)\C(C#N)=C/C(C)=C/C(C)=C/Nc1ccc([N+](=O)[O-])cc1[N+](=O)[O-]`, for which the T/C under setting [10] was 111 % of control, the T/C under setting [11] was 110 % of control and the T/C under setting [12] was 114 % of control.

Turning to `CC(=O)OCC1OC(n2c(Br)nc3c(=O)[nH]c(N)nc32)C(OC(C)=O)C1OC(C)=O` (centres undefined), the T/C is 102 % of control (dose: 50.0 mg/kg/injection, schedule: Q01DX005 (ip), vehicle: saline with Tween-80); 104 % of control (dose: 100.0 mg/kg/injection, schedule: Q01DX005 (ip), vehicle: saline with Tween-80); 107 % of control (dose: 200.0 mg/kg/injection, schedule: Q01DX005 (ip), vehicle: saline with Tween-80).

In the case of `C[S+]1CCC(C(=O)[O-])N1` (centres undefined), the T/C by setting is: (dose: 50.0 mg/kg/injection, schedule: Q01DX005 (ip), vehicle: saline) 101 % of control; (dose: 100.0 mg/kg/injection, schedule: Q01DX005 (ip), vehicle: saline) 98 % of control; (dose: 200.0 mg/kg/injection, schedule: Q01DX005 (ip), vehicle: saline) 98 % of control.

As to `COc1cccc2nncn12`, the T/C is 100 % of control (dose: 50.0 mg/kg/injection, schedule: Q01DX001 (ip), vehicle: saline); 100 % of control (dose: 100.0 mg/kg/injection, schedule: Q01DX001 (ip), vehicle: saline); 100 % of control (dose: 200.0 mg/kg/injection, schedule: Q01DX001 (ip), vehicle: saline).

For the molecule `CCOC(=O)NC1=C(N2CC2)C(=O)C(NC(=O)OCC)=C(N2CC2)C1=O`, the T/C is 110 % of control (dose: 0.5 mg/kg/injection, schedule: Q01DX005 (iv), vehicle: saline); 160 % of control (dose: 2.59 mg/kg/injection, schedule: Q04DX002 (ip), vehicle: saline); 216 % of control (dose: 3.0 mg/kg/injection, schedule: Q01DX005 (ip), vehicle: saline with Tween-80); 200 % of control (dose: 4.0 mg/kg/injection, schedule: Q01DX005 (ip), vehicle: saline); 211 % of control and 259 % of control (dose: 4.9 mg/kg/injection, schedule: Q01DX005 (ip), vehicle: saline with Tween-80); 160 % of control (dose: 8.0 mg/kg/injection, schedule: Q04DX003 (iv), vehicle: saline with Tween-80). For the same molecule, the T/C by setting is: (dose: 8.1 mg/kg/injection, schedule: Q01DX005 (ip), vehicle: saline with Tween-80) 75 % of control; (dose: 12.0 mg/kg/injection, schedule: Q04DX002 (ip), vehicle: saline) 277 % of control; (dose: 22.5 mg/kg/injection, schedule: Q01DX001 (ip), vehicle: saline with Tween-80) 62 % of control; (dose: 37.5 mg/kg/injection, schedule: Q01DX001 (ip), vehicle: saline with Tween-80) 100 % of control and 58 % of control.

On to `COc1cc2c(cc1Br)C(=O)C(Br)(Br)CCC2Br` (centres undefined), for which the T/C is 118 % of control (dose: 50.0 mg/kg/injection, schedule: Q01DX009 (ip), vehicle: Klucel (hydroxypropylcellulose) (HPC)); 118 % of control (dose: 100.0 mg/kg/injection, schedule: Q01DX009 (ip), vehicle: Klucel (hydroxypropylcellulose) (HPC)); 114 % of control (dose: 200.0 mg/kg/injection, schedule: Q01DX009 (ip), vehicle: Klucel (hydroxypropylcellulose) (HPC)).

As for `COc1cc2c(cc1OC)C1C(O)C(OC)C=C3CCN(C2)C31` (centres undefined), the T/C reads like this: under setting [2], 114 % of control; under setting [3], 114 % of control; (dose: 50.0 mg/kg/injection, schedule: Q01DX009 (ip), vehicle: saline) 93 % of control; under setting [9], 118 % of control; (dose: 100.0 mg/kg/injection, schedule: Q01DX009 (ip), vehicle: saline) 119 % of control; (dose: 200.0 mg/kg/injection, schedule: Q01DX009 (ip), vehicle: saline) 102 % of control.

As for `C=CCC(OC(=O)c1ccc(Br)cc1)C1(C)OC1C(C)C1CC(O)(C(OC)OC)NC(=O)O1` (centres undefined), the T/C by setting is: (dose: 0.25 mg/kg/injection, schedule: Q01DX009 (ip), vehicle: saline + alcohol) 108 % of control; (dose: 0.5 mg/kg/injection, schedule: Q01DX009 (ip), vehicle: saline + alcohol) 107 % of control; (dose: 1.0 mg/kg/injection, schedule: Q01DX009 (ip), vehicle: saline + alcohol) 115 % of control.

For the molecule `O=C(O)P(=O)(O)O`, the T/C reads like this: (dose: 50.0 mg/kg/injection, schedule: Q01DX009 (ip), vehicle: water) 95 % of control; (dose: 100.0 mg/kg/injection, schedule: Q01DX009 (ip), vehicle: water) 103 % of control; (dose: 200.0 mg/kg/injection, schedule: Q01DX009 (ip), vehicle: water) 100 % of control.
